Test results published in ChEMBL document CHEMBL3425509, “Design, synthesis, and biological evaluation of benzofuran- and 2,3-dihydrobenzofuran-2-carboxylic acid N-(substituted)phenylamide derivatives as anticancer agents and inhibitors of NF-κB” (Bioorg Med Chem Lett, 2015).

Legend:
[1] = target: Nuclear factor NF-kappa-B complex (Homo sapiens) (UniProt Q00653+P19838+Q04206); test: Inhibition of NF-kappaB (unknown origin) transcriptional activity in LPS-induced mouse RAW264.7 cells at 30 uM after 1 hr by secreted alkaline phosphatase assay relative to control; format: cell-based
[2] = Cytotoxicity against human PC3 cells assessed as cell viability at 10 uM after 72 hrs by sulforhodamine B assay relative to control; format: functional; conditions: PC-3, 72 h, read-out: Activity
[3] = Cytotoxicity against human HCT15 cells assessed as cell viability at 10 uM after 72 hrs by sulforhodamine B assay relative to control; format: functional; conditions: HCT-15, 72 h, read-out: Activity
NCI-H23 = test: Cytotoxicity against human NCI-H23 cells assessed as cell viability at 10 uM after 72 hrs by sulforhodamine B assay relative to control; format: functional; conditions: NCI-H23, 72 h, read-out: Activity
ACHN = test: Cytotoxicity against human ACHN cells assessed as cell viability at 10 uM after 72 hrs by sulforhodamine B assay relative to control; format: functional; conditions: read-out: Activity
[4] = Cytotoxicity against human NUGC3 cells assessed as cell viability at 10 uM after 72 hrs by sulforhodamine B assay relative to control; format: functional; conditions: NUGC-3, 72 h, read-out: Activity
MDA-MB-231 = test: Cytotoxicity against human MDA-MB-231 cells assessed as cell viability at 10 uM after 72 hrs by sulforhodamine B assay relative to control; format: functional; conditions: MDA-MB-231, 72 h, read-out: Activity

Chain of Nuclear factor NF-kappa-B complex (Homo sapiens) (P19838 whole entry, looked up): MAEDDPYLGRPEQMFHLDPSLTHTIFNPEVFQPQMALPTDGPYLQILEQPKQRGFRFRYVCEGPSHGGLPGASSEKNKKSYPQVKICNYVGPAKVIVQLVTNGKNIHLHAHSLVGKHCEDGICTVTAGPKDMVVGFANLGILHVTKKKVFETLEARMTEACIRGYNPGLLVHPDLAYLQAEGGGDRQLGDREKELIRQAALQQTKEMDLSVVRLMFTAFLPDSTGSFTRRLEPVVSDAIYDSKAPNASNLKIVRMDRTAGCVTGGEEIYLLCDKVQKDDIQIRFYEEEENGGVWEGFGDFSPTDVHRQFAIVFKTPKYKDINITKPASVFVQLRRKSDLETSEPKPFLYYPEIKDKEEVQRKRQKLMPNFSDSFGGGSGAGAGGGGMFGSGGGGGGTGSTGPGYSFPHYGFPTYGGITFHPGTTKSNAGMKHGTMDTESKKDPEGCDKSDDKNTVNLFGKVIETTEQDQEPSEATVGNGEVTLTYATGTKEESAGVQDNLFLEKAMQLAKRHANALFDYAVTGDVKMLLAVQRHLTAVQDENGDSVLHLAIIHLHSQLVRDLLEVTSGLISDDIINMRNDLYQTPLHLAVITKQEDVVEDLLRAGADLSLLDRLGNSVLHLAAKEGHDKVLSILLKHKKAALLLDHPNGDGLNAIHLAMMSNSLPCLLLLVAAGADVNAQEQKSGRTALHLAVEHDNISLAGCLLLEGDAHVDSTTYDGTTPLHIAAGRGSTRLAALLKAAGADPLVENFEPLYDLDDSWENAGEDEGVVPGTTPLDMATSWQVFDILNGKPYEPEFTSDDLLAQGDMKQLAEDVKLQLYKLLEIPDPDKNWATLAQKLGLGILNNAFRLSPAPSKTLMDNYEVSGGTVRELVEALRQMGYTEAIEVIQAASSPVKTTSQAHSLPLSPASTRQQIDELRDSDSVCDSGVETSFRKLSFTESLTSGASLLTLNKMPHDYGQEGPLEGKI
Chain of Nuclear factor NF-kappa-B complex (Homo sapiens) (Q00653 whole entry, looked up): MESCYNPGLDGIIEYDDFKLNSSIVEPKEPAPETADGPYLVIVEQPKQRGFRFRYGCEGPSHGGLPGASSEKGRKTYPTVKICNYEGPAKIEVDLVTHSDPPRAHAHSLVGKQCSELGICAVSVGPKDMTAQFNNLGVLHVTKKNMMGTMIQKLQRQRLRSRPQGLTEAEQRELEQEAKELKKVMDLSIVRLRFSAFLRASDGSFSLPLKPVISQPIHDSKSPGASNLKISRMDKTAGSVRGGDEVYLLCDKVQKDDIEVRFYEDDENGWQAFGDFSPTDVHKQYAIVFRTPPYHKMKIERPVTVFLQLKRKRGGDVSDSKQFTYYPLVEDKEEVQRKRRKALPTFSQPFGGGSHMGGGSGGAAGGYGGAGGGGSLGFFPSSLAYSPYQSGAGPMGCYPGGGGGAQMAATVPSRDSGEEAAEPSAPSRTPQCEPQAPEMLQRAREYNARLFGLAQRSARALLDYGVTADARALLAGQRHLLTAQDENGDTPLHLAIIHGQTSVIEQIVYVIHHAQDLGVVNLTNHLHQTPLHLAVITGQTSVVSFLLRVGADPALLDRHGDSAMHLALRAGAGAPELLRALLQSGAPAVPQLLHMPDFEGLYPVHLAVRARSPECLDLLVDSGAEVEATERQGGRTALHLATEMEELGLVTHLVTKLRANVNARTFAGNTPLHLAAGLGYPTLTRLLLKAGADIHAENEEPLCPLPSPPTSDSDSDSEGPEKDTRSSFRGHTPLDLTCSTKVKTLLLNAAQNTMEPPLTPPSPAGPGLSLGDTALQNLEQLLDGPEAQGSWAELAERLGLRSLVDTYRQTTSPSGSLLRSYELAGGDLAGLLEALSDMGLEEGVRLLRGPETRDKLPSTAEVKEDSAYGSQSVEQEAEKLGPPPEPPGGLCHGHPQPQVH
Chain of Nuclear factor NF-kappa-B complex (Homo sapiens) (Q04206 whole entry, looked up): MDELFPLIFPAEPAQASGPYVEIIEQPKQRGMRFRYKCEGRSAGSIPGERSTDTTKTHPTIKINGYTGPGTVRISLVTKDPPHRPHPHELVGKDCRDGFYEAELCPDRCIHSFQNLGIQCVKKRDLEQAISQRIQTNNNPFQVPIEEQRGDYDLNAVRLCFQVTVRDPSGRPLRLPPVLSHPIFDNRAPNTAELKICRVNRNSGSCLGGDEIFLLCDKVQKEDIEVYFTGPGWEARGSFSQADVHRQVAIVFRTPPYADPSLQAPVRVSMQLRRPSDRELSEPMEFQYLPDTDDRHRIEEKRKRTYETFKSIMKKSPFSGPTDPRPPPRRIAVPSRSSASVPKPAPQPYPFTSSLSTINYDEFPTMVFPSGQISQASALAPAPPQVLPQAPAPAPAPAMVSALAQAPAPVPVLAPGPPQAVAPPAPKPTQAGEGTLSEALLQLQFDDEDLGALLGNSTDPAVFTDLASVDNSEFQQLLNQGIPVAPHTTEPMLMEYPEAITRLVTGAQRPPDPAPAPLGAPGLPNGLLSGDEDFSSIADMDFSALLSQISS

Row | inhibition [1] | SMILES | viability at 10 µM [2] | viability at 10 µM [3] | viability at 10 µM (NCI-H23) | viability at 10 µM (ACHN) | viability at 10 µM [4] | viability at 10 µM (MDA-MB-231)
1 | 49.5% | O=C(Nc1ccccc1Cl)c1cc2ccccc2o1 | 91% | 75% | 91% | 76% | 86% | 76%
2 | 23% | COc1ccc(OC)c(NC(=O)c2cc3ccccc3o2)c1 | 106% | 97% | 103% | 102% | 91% | 101%
3 | 44% | O=C(Nc1ccccc1)c1cc2ccccc2o1 | 83% | 75% | 98% | 89% | 97% | 94%
4 | 70% | Cc1ccc(NC(=O)c2cc3ccccc3o2)cc1C | 92% | 95% | 100% | 103% | 91% | 92%
5 | 34.5% | COc1cccc(NC(=O)c2cc3ccccc3o2)c1 | 106% | 87% | 105% | 105% | 99% | 127%
6 | 23% | O=C(Nc1ccccc1O)c1cc2ccccc2o1 | 68% | 58% | 86% | 84% | 84% | 85%
7 | 47.5% | O=C(Nc1cccc(C(F)(F)F)c1)c1cc2ccccc2o1 | 96% | 75% | 92% | 83% | 79% | 105%
8 | 40% | O=C(Nc1ccc(Cl)c(Cl)c1)c1cc2ccccc2o1 | 113% | 96% | 100% | 95% | 102% | 80%
9 | 28.5% | O=C(Nc1cc(C(F)(F)F)ccc1C(F)(F)F)c1cc2ccccc2o1 | 95% | 88% | 77% | 84% | 89% | 98%
10 | 11% | O=C(Nc1cccc([N+](=O)[O-])c1)c1cc2ccccc2o1 | 95% | 88% | 99% | 93% | 98% | 111%
11 | 63% | COc1cc(NC(=O)c2cc3ccccc3o2)cc(OC)c1 | 92% | 95% | 102% | 102% | 90% | 106%
12 | 43% | O=C(Nc1ccc(Cl)cc1)c1cc2ccccc2o1 | 84% | 68% | 92% | 89% | 91% | 96%
13 | 38% | Cc1cccc(NC(=O)c2cc3ccccc3o2)c1 | 94% | 87% | 101% | 93% | 99% | 106%
14 | 20.5% | O=C(Nc1ccccc1O)C1Cc2ccccc2O1 (configuration not stated) | 109% | 102% | 102% | 134% | 103% | 83%
15 | 25.5% | O=C(Nc1ccccc1[N+](=O)[O-])c1cc2ccccc2o1 | 92% | 73% | 95% | 91% | 95% | 102%
16 | 36.5% | O=C(Nc1cc(Cl)ccc1Cl)c1cc2ccccc2o1 | 97% | 81% | 96% | 96% | 89% | 101%
17 | 37% | O=C(Nc1cccc(Cl)c1)c1cc2ccccc2o1 | 95% | 52% | 61% | 69% | 83% | 80%
18 | 41% | O=C(Nc1cccc(O)c1)c1cc2ccccc2o1 | 90% | 85% | 95% | 84% | 87% | 100%
19 | 46% | Cc1ccccc1NC(=O)c1cc2ccccc2o1 | 100% | 93% | 89% | 106% | 98% | 101%
20 | 34.5% | Cc1ccc(NC(=O)c2cc3ccccc3o2)cc1 | 103% | 82% | 104% | 96% | 95% | 105%

Further lines, the compound ahead of its results:

Row | SMILES | inhibition [1] | viability at 10 µM [2] | viability at 10 µM [3] | viability at 10 µM (NCI-H23) | viability at 10 µM (ACHN) | viability at 10 µM [4] | viability at 10 µM (MDA-MB-231)
21 | Cc1ccc(C)c(NC(=O)C2Cc3ccccc3O2)c1 (configuration not stated) | 22% | 55% | 88% | 103% | 129% | 81% | 88%
22 | COc1cc(NC(=O)C2Cc3ccccc3O2)cc(OC)c1 (configuration not stated) | 24% | 73% | 91% | 95% | 123% | 96% | 78%
23 | O=C(Nc1cc(C(F)(F)F)cc(C(F)(F)F)c1)C1Cc2ccccc2O1 (configuration not stated) | 25% | 96% | 92% | 92% | 94% | 105% | 105%
24 | O=C(Nc1ccc(O)cc1)C1Cc2ccccc2O1 (configuration not stated) | 18.5% | 98% | 88% | 106% | 122% | 102% | 91%
25 | O=C(Nc1ccc(Cl)cc1)C1Cc2ccccc2O1 (configuration not stated) | 41.5% | 71% | 55% | 89% | 143% | 100% | 100%
26 | COc1ccccc1NC(=O)C1Cc2ccccc2O1 (configuration not stated) | 29% | 88% | 100% | 111% | 134% | 111% | 89%
27 | COc1cccc(NC(=O)C2Cc3ccccc3O2)c1 (configuration not stated) | 16.5% | 89% | 99% | 102% | 135% | 106% | 80%
28 | O=C(Nc1cccc([N+](=O)[O-])c1)C1Cc2ccccc2O1 (configuration not stated) | 40% | 77% | 83% | 95% | 109% | 83% | 92%
29 | Cc1ccc(NC(=O)C2Cc3ccccc3O2)cc1C (configuration not stated) | 44.5% | 94% | 97% | 92% | 137% | 99% | 86%
30 | Cc1ccccc1NC(=O)C1Cc2ccccc2O1 (configuration not stated) | 38% | 87% | 88% | 91% | 108% | 91% | 103%
31 | O=C(Nc1cc(C(F)(F)F)ccc1C(F)(F)F)C1Cc2ccccc2O1 (configuration not stated) | 34% | 88% | 81% | 87% | 105% | 99% | 98%
32 | O=C(Nc1ccc(C(F)(F)F)cc1)C1Cc2ccccc2O1 (configuration not stated) | 41% | 60% | 96% | 97% | 124% | 99% | 82%
33 | O=C(Nc1cc(Cl)ccc1Cl)C1Cc2ccccc2O1 (configuration not stated) | 42.5% | 84% | 77% | 90% | 101% | 105% | 74%
34 | Cc1cc(C)cc(NC(=O)C2Cc3ccccc3O2)c1 (configuration not stated) | 34% | 94% | 91% | 97% | 136% | 95% | 97%
35 | O=C(Nc1ccccc1C(F)(F)F)C1Cc2ccccc2O1 (configuration not stated) | 44.5% | 74% | 98% | 102% | 136% | 103% | 98%
36 | O=C(Nc1cc(Cl)cc(Cl)c1)C1Cc2ccccc2O1 (configuration not stated) | 75% | 89% | 98% | 99% | 89% | 114% | 89%
